{"source": "paper PMC10613692", "about": "“Central and peripheral analgesic active components of triterpenoid saponins from Stauntonia chinensis and their action mechanism” (Frontiers in Pharmacology, 2023)", "format_in_all_cases": "cell-based", "key": {"[1]": {"target": "T1, transient receptor potential vanilloid 1 (TRPV1) (Rattus norvegicus, UniProt O35433)", "T1 construct": "native channel in rat DRG neurons", "T1 sequence (O35433 whole entry)": "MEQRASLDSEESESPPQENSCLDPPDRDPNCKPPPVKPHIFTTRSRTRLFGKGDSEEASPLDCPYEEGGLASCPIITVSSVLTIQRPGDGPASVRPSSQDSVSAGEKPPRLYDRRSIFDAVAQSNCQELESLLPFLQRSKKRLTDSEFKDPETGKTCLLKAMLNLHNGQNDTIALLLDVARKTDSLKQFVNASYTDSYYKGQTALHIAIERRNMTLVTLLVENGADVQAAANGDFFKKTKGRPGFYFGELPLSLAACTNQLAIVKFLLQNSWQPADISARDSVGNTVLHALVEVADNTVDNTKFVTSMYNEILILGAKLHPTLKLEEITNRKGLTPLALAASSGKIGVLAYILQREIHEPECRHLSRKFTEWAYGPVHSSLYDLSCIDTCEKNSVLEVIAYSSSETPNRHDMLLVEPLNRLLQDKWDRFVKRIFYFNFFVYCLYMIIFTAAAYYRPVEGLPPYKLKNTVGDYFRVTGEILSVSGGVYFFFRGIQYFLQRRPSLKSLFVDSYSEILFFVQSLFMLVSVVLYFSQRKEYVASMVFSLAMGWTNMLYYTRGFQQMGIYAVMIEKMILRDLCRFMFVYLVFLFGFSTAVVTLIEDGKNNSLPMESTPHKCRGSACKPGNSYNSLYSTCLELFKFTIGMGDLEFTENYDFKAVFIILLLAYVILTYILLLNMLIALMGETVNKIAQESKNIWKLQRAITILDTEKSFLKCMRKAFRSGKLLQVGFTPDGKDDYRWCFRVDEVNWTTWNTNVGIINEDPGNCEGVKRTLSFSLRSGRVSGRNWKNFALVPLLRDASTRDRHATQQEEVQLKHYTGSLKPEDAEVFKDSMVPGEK", "test": "whole-cell patch clamp of capsaicin-induced TRPV1 currents in rat DRG neurons; capsaicin concentration curves with and without C9", "description": "whole-cell patch clamp of capsaicin-induced TRPV1 currents in rat DRG neurons; capsaicin concentration curves with and without C9 on transient receptor potential vanilloid 1 (TRPV1) | Concentration dependence curve of the inhibition on CAP-induced TRPV1 currents of C9."}, "[2]": {"target": "T1, transient receptor potential vanilloid 1 (TRPV1)", "test": "whole-cell patch clamp in rat DRG neurons, capsaicin concentration-response ([…])"}, "[3]": {"target": "T1, transient receptor potential vanilloid 1 (TRPV1)", "test": "whole-cell patch clamp of capsaicin-induced currents in rat DRG neurons, single concentration ([…])"}}}
{"smiles": "C[C@@H]1O[C@@H](O[C@H]2[C@H](O)[C@@H](O)[C@H](OC[C@H]3O[C@@H](OC(=O)[C@]45CCC(C)(C)C[C@H]4C4=CC[C@@H]6[C@@]7(C)CC[C@H](O[C@@H]8OC[C@H](O)[C@H](O)[C@H]8O)[C@@](C)(CO)[C@@H]7CC[C@@]6(C)[C@]4(C)CC5)[C@H](O)[C@@H](O)[C@@H]3O)O[C@@H]2CO)[C@H](O)[C@H](O)[C@H]1O", "note": "[Compound 9, hederasaponin D]", "values": [{"measurement": "EC50", "setting": "[1]", "value": "36.9 ± 4.4", "unit": "nM"}]}
{"smiles": "COc1cc(CNC(=O)CCCC/C=C/C(C)C)ccc1O", "note": "[capsaicin]", "values": [{"measurement": "whole-cell patch clamp in rat DRG neurons, capsaicin concentration-response (0.0)", "setting": "[2]", "value": "Concentration dependent curves of TRPV1 currents induced by CAP in the presence or absence of C9."}]}
{"smiles": "Oc1cc2c(cc1O)CN(C(=S)NCCc1ccc(Cl)cc1)CCC2", "note": "[capsazepine]", "values": [{"measurement": "whole-cell patch clamp of capsaicin-induced currents in rat DRG neurons, single", "setting": "[3]", "value": "The recorded current was almost completely suppressed by capsazepine (CPZ), proving that it was the CAP-induced TRPV1 current."}]}
